Test results taken from patent US20240400584A1, “COMPOUNDS AND METHODS FOR MODULATING SPLICING” (REMIX THERAPEUTICS INC., priority 2021, published 2024).

What was measured:
[1] = test system: Target C; assay: Gene panel canonical junction qPCR assay, Target C CJ mRNA (Table 7); type: cell-based, human; conditions: Homo sapiens, read-out: Target C CJ mRNA decrease IC50
Description: (§1) Compounds described herein were used to modulate RNA transcript abundance in cells. The expression of a target mRNA was measured by detecting the formation of an exon-exon junction in the canonical transcript (CJ). A compound mediated exon-inclusion event was detected by observing an increase in formation OF A new junction with an alternative exon (AJ). Real-time qPCR assays were used to detect these splicing switches and interrogate the potency of various compounds towards different target Genes. A high-throughput real time quantitative PCR (RT-qPCR) assay was developed to measure these two isoforms of the mRNA (CJ and AJ) for exemplary genes, such as HTT, SMN2, and MYB, together with a control housekeeping gene, GAPDH or GUSB or PPIA, used for normalization. Briefly, the A673 or K562 cell line was treated with various compounds described herein (e.g., compounds of Formula (i)). After treatment, the levels of the HTT, MYB, or SMN2 mRNA targets were determined from each sample of cell lysate by cDNA synthesis followed by qPCR.
(§2) The data analysis was performed by first determining the ΔCt vs the housekeeper gene. This ΔCt was then normalized against the DMSO control (ΔΔCt) and converted to RQ (relative quantification) using the 2^(−ΔΔCt) equation. The RQ were then converted to a percentage response by arbitrarily setting an assay window of 3.5 and 4.0 ΔCt for HTT-CJ and MYB-CJ respectively and an assay window of 9 and 3 ΔCt for HTT-AJ and MYB-AJ in 96 well format (50,000 K562 cells/well and 15,000 A673 cells per well) and an assay window of 3 and 4 ΔCt for HTT-CJ and MYB-CJ respectively and an assay window of 5 and 3 ΔCt for HTT-AJ and MYB-AJ respectively in 384 well format (8,000 K562 cells/well example). […] The percentage response was then fitted to the 4 parametric logistic equation to evaluate the concentration dependence of compound treatment. The increase in AJ mRNA is reported as AC50 (compound concentration having 50% response in AJ increase) while the decrease in CJ mRNA levels is reported as IC50 (compound concentration having 50% response in CJ decrease).
(§3) Additional studies were carried out for a larger panel of genes using the protocol provided above. The junction between flanking upstream and downstream exons was used to design canonical junction qPCR assays. At least one of the forward primer, reverse primer or the CY5-labeled 5′ nuclease probe (with 3′ quencher such as ZEN/Iowa Black FQ) was designed to overlap with the exon junction to capture the CJ mRNA transcript. BLAST was used to confirm the specificity of the probeset and parameters such as melting temperature, GC content, amplicon size, and primer dimer formation are considered during their design. Data for the decrease in CJ mRNA levels for four exemplary genes (HTT, SMN2, MYB, and Target C) analyzed in this panel are reported as IC50 (compound concentration having 50% response in CJ decrease).

[2] = test system: MYB; assay: Gene panel canonical junction qPCR assay, MYB CJ mRNA (Table 7); type: cell-based; conditions: Homo sapiens, read-out: MYB CJ mRNA decrease IC50
Description: as §1, §2, §3

[3] = test system: SMN2; assay: Gene panel canonical junction qPCR assay, SMN2 CJ mRNA (Table 7); type: cell-based; conditions: Homo sapiens, read-out: SMN2 CJ mRNA decrease IC50
Description: as §1, §2, §3

[4] = test system: HTT; assay: RT-qPCR splicing assay, HTT AJ/CJ mRNA; type: cell-based, human; conditions: Homo sapiens, 24 h, A673 or K562 cells; for IC50: decrease in canonical junction mRNA; for AC50: increase in alternative junction mRNA
Description: as §1
(§4) The A673 cell line was cultured in DMEM with 10% FBS. Cells were diluted with full growth media and plated in a 96-well plate (15,000 cells in 100 ul media per well). The plate was incubated at 37° C. with 5% CO2 for 24 hours to allow cells to adhere. An 11-point 3-fold serial dilution of the compounds was made in DMSO then diluted in media in an intermediate plate. Compounds were transferred from the intermediate plate to the cell plate with the top dose at a final concentration of 10 uM in the well. Final DMSO concentration was kept at or below 0.25%. The cell plate was returned to the incubator at 37° C. with 5% CO2 for an additional 24 hours.
(§5) The K562 cell line was cultured in IMDM with 10% FBS. For K562, cells were diluted with full growth media and plated in either a 96-well plate (50,000 cells in 50 uL media per well) or a 384-well plate (8,000-40,000 cells in 45 uL media per well). An 11-point 3-fold serial dilution of the compounds were made in DMSO then diluted in media in an intermediate plate. Compound was transferred from the intermediate plate to the cell plate with the top dose at a final concentration of 10 uM in the well. Final DMSO concentration was kept at or below 0.25%. Final volume was 100 uL for 96-well plate and 50 uL for 384-well plate. The cell plate was then placed in an incubator at 37° C. with 5% CO2 for 24 hours.
(§6) The cells were then gently washed with 50 uL-100 uL Cold Pbs before proceeding to addition of lysis buffer. 30 uL-50 μL of room temperature lysis buffer with DNAse I (and optionally RNAsin) was added to each well. Cells were shaken/mixed thoroughly at room temperature for 5-10 minutes for lysis to take place and then 3 uL-5 μL of room temperature stop solution was added and wells were shaken/mixed again. After 2-5 minutes, the cell lysate plate was transferred to ice for RT-qPCR reaction setup. The lysates could also be frozen at −80° C. for later use.
(§7) In some cases, a direct lysis buffer was used. an appropriate volume of 3× lysis buffer (10 mM tRis, 150 mM NaCl, 1.5%-2.5% Igepal and 0.1-1 U/uL RNAsin, pH 7.4) was directly added to either K562 or A673 cells in media and mixed by pipetting 3 times. The plates were then incubated at room temperature with shaking/rocking for 20-50 minutes to allow for lysis to take place. After this time, the cell lysate plate was transferred to ice to set up for the RT-qPCR reactions. The lysates could also be frozen at −80° C. for later use.
(§8) To set up 10 uL RT-QpcR reactions, cell lysates were transferred to 384-well qPCR plates containing the master mix according to the table below. The plates were sealed, gently vortexed, and spun down before the run. The volumes were adjusted accordingly in some instances where the reaction was carried in 20 µL. The table below summarizes the components of the RT-qPCR reactions:
(§9) The RT-qPCR reaction was performed using a QuantStudio (ThermoFisher) under the following fast cycling conditions. […]

[5] = test system: HTT; assay: Gene panel canonical junction qPCR assay, HTT CJ mRNA (Table 7); type: cell-based, human; conditions: Homo sapiens, read-out: HTT CJ mRNA decrease IC50
Description: as §1, §2, §3

[6] = test system: MYB; assay: RT-qPCR splicing assay, MYB AJ/CJ mRNA; type: cell-based; conditions: Homo sapiens, A673 or K562 cells, 24 hours; for IC50: decrease in canonical junction mRNA; for AC50: increase in alternative junction mRNA
Description: as §1, §4, §5, §6, §7, §8, §9

Row | Compound | IC50 [1] [nM] | IC50 [2] [nM] | IC50 [3] [nM] | IC50 [4] [nM] | IC50 [5] [nM] | IC50 [6] [nM] | AC50 [4] [nM] | AC50 [6] [nM]
1 | CC1(C)CC(N(c2ccc3c(n2)OCc2cc(-n4cccn4)ccc2-3)C2CC2)CC(C)(C)N1 [Compound 204] | > 10000 | 1000 to 10000 | 1000 to 10000 | 1000 to 10000 | 1000 to 10000 | 1000 to 10000 | > 10000 | > 10000
2 | COc1cc(-c2cc3c(cc2F)-c2ccc(O[C@@H]4C[C@H]5CC[C@@H](C4)N5)nc2OC3)cnn1 [Compound 243] | 100 to 1000 | 100 to 1000 | < 100 | < 100 | < 100 | 100 to 1000 | < 100 | 100 to 1000
3 | c1cnn(-c2ccc3c(c2)COc2nc(N(C4CCNCC4)C4CC4)ccc2-3)c1 [Compound 202] | > 10000 | 1000 to 10000 | > 10000 | 1000 to 10000 | 1000 to 10000 | 1000 to 10000 | > 10000 | > 10000
4 | Cn1ncc(-c2ccc3c(c2)COc2nc(OC4CC5CC(F)(F)C(C4)N5)ccc2-3)cc1=O (stereo not drawn) [Compound 261, 5-[3-({6,6-difluoro-8-azabicyclo[3.2.1]octan-3-yl}oxy)-6H-isochromeno[3,4-b]pyridin-8-yl]-2-methylpyridazin-3-one] | > 10000 | > 10000 | > 10000 | > 10000 | > 10000 | > 10000 | > 10000 | > 10000
5 | CN(c1ncc2c(n1)OCc1cc(-c3cn[nH]c3)ccc1-2)[C@@H]1C[C@H]2CC[C@@H](C1)N2 [Compound 294] | 100 to 1000 | 100 to 1000 | 100 to 1000 | < 100 | < 100 | 100 to 1000 | 100 to 1000 | 1000 to 10000
6 | c1cnn(-c2ccc3c(c2)COc2nc(N4CC5(CCCNC5)C4)ccc2-3)c1 [Compound 168] | > 10000 | > 10000 | > 10000 | > 10000 | > 10000 | > 10000 | > 10000 | > 10000
7 | CN(c1ccc2c(n1)OCc1cc(-n3nccn3)ccc1-2)C1CC2CC(F)(F)C(C1)N2 (stereo not drawn) [Compound 239, 6,6-difluoro-N-methyl-N-[8-(1,2,3-triazol-2-yl)-6H-isochromeno[3,4-b]pyridin-3-yl]-8-azabicyclo[3.2.1]octan-3-amine] | 1000 to 10000 | 1000 to 10000 | 100 to 1000 | 100 to 1000 | 100 to 1000 | 1000 to 10000 | 1000 to 10000 | 1000 to 10000
8 | CN(c1ccc2c(n1)OCc1cc(-c3cnn(C)c3)ccc1-2)[C@@H]1C[C@H]2CC[C@@H](C1)N2 [Compound 150] | 100 to 1000 | 100 to 1000 | > 10000 | < 100 | < 100 | 100 to 1000 | < 100 | 100 to 1000

Now from value to compound, other results behind:

Row | IC50 [1] [nM] | IC50 [2] [nM] | IC50 [3] [nM] | IC50 [4] [nM] | IC50 [5] [nM] | IC50 [6] [nM] | Compound | AC50 [4] [nM] | AC50 [6] [nM]
9 | 100 to 1000 | 1000 to 10000 | 100 to 1000 | 100 to 1000 | 100 to 1000 | 1000 to 10000 | COc1cc(-c2ccc3c(c2)COc2nc(N4CCC(NCC5CC5)C4)ccc2-3)cnn1 (stereo not drawn) [Compound 264, N-(cyclopropylmethyl)-1-[8-(6-methoxypyridazin-4-yl)-6H-isochromeno [3,4-b]378yrrolid-3-yl]378yrrolidine-3-amine] | 100 to 1000 | 1000 to 10000
10 | > 10000 | > 10000 | 1000 to 10000 | 1000 to 10000 | 1000 to 10000 | > 10000 | CC(C)(C)NC1CCN(c2ccc3c(n2)OCc2cc(-c4cnnc(OC5CC5)c4)ccc2-3)C1 (stereo not drawn) [Compound 268, N-tert-butyl-1-[8-(6-cyclopropoxypyridazin-4-yl)-6H-isochromeno[3,4-b]pyridin-3-yl]pyrrolidin-3-amine] | 1000 to 10000 | > 10000
11 | 1000 to 10000 | 1000 to 10000 | 1000 to 10000 | 1000 to 10000 | 1000 to 10000 | 1000 to 10000 | c1cnn(-c2ccc3c(c2)COc2nc(N4CCC5(CCNC5)CC4)ccc2-3)c1 [Compound 184] | 1000 to 10000 | 1000 to 10000
12 | 100 to 1000 | 100 to 1000 | < 100 | < 100 | < 100 | 100 to 1000 | CC1(C)CC(Oc2ccc3c(n2)OCc2cc(-c4cn[nH]c4)c(F)cc2-3)CC(C)(C)N1 [Compound 234] | < 100 | 100 to 1000
13 | 1000 to 10000 | 1000 to 10000 | 100 to 1000 | 100 to 1000 | 100 to 1000 | 1000 to 10000 | c1cc2c(cc1-c1cn[nH]c1)COc1nc(N3CCC4(CCN4)C3)ccc1-2 (stereo not drawn) [Compound 217, 6-[8-(1H-pyrazol-4-yl)-6H-isochromeno[3,4-b]pyridin-3-yl]-1,6-diazaspiro[3.4]octane] | 1000 to 10000 | > 10000
14 | 100 to 1000 | 100 to 1000 | 100 to 1000 | 100 to 1000 | 100 to 1000 | 100 to 1000 | COc1cc(-c2ccc3c(c2)COc2nc(N4CCNCC4)ccc2-3)cnn1 [Compound 282, 3-methoxy-5-[3-(piperazin-1-yl)-6H-isochromeno[3,4-b]pyridin-8-yl] pyridazine] | 100 to 1000 | 100 to 1000
15 | 1000 to 10000 | 1000 to 10000 | 100 to 1000 | 100 to 1000 | 100 to 1000 | 1000 to 10000 | COc1cc(-c2ccc3c(c2)COc2nc(N4CCC(N(C)C(C)C)C4)ccc2-3)cnn1 (stereo not drawn) [Compound 311] | 100 to 1000 | 100 to 1000
